Values quoted from earlier work as cited in patent publication US20260258132A1, “TREATMENT OF LUNG CANCER WITH ANTI-PD-1 AND CHEMOTHERAPY” (BeOne Medicines I GmbH, priority 2023, published 2026).

Test system: ES-SCLC
Conditions: cited from earlier work; for RMST analysis: difference in OS in prior studies: versus placebo plus chemotherapy

Molecule | median OS in the previous study (first-line treatment for ES-SCLC) | OS HR in the previous study (pembrolizumab arm versus placebo arm, 95% CI 0.64-0.98) | RMST analysis: difference in OS in prior studies
pembrolizumab plus chemotherapy: pembrolizumab (humanized IgG4 anti-PD-1 antibody) plus chemotherapy, first-line ES-SCLC, previous study | 10.8 months | 0.80 | 1.2 month
adebrelimab plus chemotherapy: adebrelimab plus chemotherapy, prior study compared by RMST of OS (antibody, chains of the INN, looked up, V domains shown, plus chemotherapy, adebrelimab plus chemotherapy, prior study compared by RMST of OS) VH: QVQLVQSGAEVKKPGASVKVSCKASGYTFTSYWMHWVRQAPGQGLEWMGRIGPNSGFTSYNEKFKNRVTMTRDTSTSTVYMELSSLRSEDTAVYYCARGGSSYDYFDYWGQGTTVTVSS VL: DIVLTQSPASLAVSPGQRATITCRASESVSIHGTHLMHWYQQKPGQPPKLLIYAASNLESGVPARFSGSGSGTDFTLTINPVEAEDTANYYCQQSFEDPLTFGQGTKLEIK |  |  | 2.3 month
